Test results published in US6319910A, “Method for inhibiting cyclooxygenase-2 and tumor necrosis factor alpha” (Hospital for Joint Diseases, priority 1998, dated 2001).
“Also recorded” adds a separate entry of the source.

What was measured:
bovine chondrocytes [1] = assay: PGE2 production in LPS stimulated bovine chondrocytes (radioimmunoassay); format: cell-based; conditions: FIGS. 3 and 9, words
Description: After 48 hours the medium was changed and the cells were incubated with CMT-3 or N-monomethyl arginine (NMMA) for 2 hours before stimulating them with 100 μg/ml LPS. DMSO was used as a carrier for the modulators and the DMSO concentration was maintained (<0.01% v/v) in the cultures. Equivalent amounts of DMSO was also added to the control cultures. The levels of COX-2 dependent PGE2 release was assayed after 72 hrs by radioimmunoassay. […] The data represents mean±SD which was evaluated by T test where n=3.

bovine chondrocytes [2] = assay: Nitrite (NO) production in LPS stimulated bovine chondrocytes; format: cell-based; conditions: FIGS. 3 and 9; LPS 100 μg/ml; words
OA-affected cartilage = assay: Spontaneous nitrite/nitric oxide release by OA-affected cartilage (ex vivo organ culture); format: cell-based, human
Description: Human osteoarthritis affected cartilage spontaneously release nitric oxide (NO) and PGE2 in the medium as previously reported (Amin et al, 1995a; 1997a). The OA-organ cultures were set up as described (Amin et al, 1995a; 1997a). Briefly, total knee articular cartilage from tibial plateau and femoral condyle were harvested from OA-affected patients. The cartilage was mixed and cut into 3-mm discs and 4-6 discs were placed in triplicate or quadruplicate, in a 24-well plate in 2.0 ml of Ham's F-12 medium supplemented with 0.2% endotoxin free human albumin, 10 mM Hepes pH 7.4 and antibiotics in the presence of various modulators, as previously described (Amin et al, 1995a; 1997a). CMT-8 was used at pharmacologically relevant concentrations in DMSO (<0.01% final concentration) as carrier. An equivalent amount of DMSO was also added in the control cultures.
The p value between control and CMT-8 treated values for PGE2≤0.1 (insignificant) whereas the p values between NMMA treated cartilage and CMT-8 treated cartilage was ≤0.001 (significant). The data are represented as mean±SD as examined by T test when n=3. Data represent±SD value as determined by Student's t test n=4. The P values described are compared with control unstimulated OA-cartilage. The data represents one of the two similar experiments. P values for PGE2 and Nitrite=^a≤0.5; ^b≤0.1; ^c≤0.05; ^d≤0.01.

TNFα = TNFα release in the medium by HEK 293 cells permanently transfected with human proTNFα (ELISA); format: cell-based; conditions: words
Description: HEK 293 cells were transfected with the proTNFα cDNA (wild) to prepare a stable cell line. […] A mutant form of proTNFα cDNA which could not be cleaved by the endogenous TNFα convertase (TACE) to release soluble TNFα was also transfected in separate human HEK 293 cells. The soluble TNFα was estimated by ELISA from the wild type and mutant transfected cells from the medium (FIG. 6).
HEK 293 cells were grown as previously described by American Type Culture Collection (ATCC). […] The HEK 293 cells were incubated with CMT-3 to examine the effects of CMT-3 on TNFα release in the medium.
HEK 293 cells were grown under the conditions previously described by ATCC. Various compounds, including CMT-3 and doxycycline/minocyclines were incubated with proTNFα transfected HEK 293 cells releasing TNFα in the medium at 16 hours. […] Soluble TNFα was estimated by ELISA from the medium.

COX-2 [3] = target: T1, COX-2 (Mus musculus, UniProt Q05769); assay: COX-2 specific activity in cell-free extracts of LPS-stimulated RAW 264.7 cells (PGE2 by RIA); format: biochemical, murine
T1 construct: using total unfractionated cell extracts; endogenous in cells; host or cells: RAW 264.7 cells, LPS-induced; cell-free extract
T1 sequence (Q05769 18-604): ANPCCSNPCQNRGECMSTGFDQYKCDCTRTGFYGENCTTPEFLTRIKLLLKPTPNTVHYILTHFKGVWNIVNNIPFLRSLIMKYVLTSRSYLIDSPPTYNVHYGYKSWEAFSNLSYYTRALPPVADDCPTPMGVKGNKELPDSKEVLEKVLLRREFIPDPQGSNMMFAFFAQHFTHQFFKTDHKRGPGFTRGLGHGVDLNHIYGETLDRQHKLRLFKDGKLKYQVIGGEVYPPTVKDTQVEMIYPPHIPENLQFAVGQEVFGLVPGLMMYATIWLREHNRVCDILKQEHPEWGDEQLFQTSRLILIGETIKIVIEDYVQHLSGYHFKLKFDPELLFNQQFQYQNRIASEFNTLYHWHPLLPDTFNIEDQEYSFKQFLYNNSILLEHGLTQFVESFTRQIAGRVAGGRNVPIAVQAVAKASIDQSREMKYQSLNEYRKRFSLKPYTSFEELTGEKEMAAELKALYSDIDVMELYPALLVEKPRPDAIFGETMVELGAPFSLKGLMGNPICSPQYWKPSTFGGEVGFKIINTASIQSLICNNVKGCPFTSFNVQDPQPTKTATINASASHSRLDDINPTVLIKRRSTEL
Description: Raw 264.7 cells were stimulated with LPS and cell-free extracts were prepared as follows. RAW 264.7 cells were induced with LPS (100 ng/ml) in the presence or absence of tetracyclines or hydrocortisone for 14-20 hours. Following induction, the cells were pelleted at 4° C. and resuspended in Tris buffer: 10 mM, pH 7.4 containing 10 μg/ml each of chymostatin, antipain, leupeptin and pepstatin, 1 mM DDT and 1 mM PMSF. Cells were lysed in a Polytron PA 1200 homogenizer (Kinematica AG, Switzerland) with the cocktail of protease inhibitors after 3 cycles of rapid freeze-thawing. The lysate was centrifuged at 18,000 at 4° C. in an eppendorf centrifuge, and the resulting supernatant was used as cell-free extracts. The protein was measured by BCA assay reagent (Pierce, Rockford, Ill.) using BSA as standard. […] The specific enzyme activity was defined as ng of PGE2 released/mg protein/37° C. for 20 minutes.
RAW 264.7 cells were stimulated with 1 μg/ml of LPS for 16 hours and cell-free extracts were prepared as described above. The extracts were incubated with different modulators for 20 minutes at 37° C. before adding the substrate to initiate the enzyme reaction, which was terminated after 30 minutes by heat inactivation. The data represent one of the two experiments, the PGE2 analysis from each sample was done in triplicates n=3. The p value is a comparison between control and experimentals.

COX-2 [4] = assay: COX-2 expression in cells/cartilage (general statement); format: cell-based; conditions: words
iNOS mRNA = conditions: Amin et al, 1997b; words; cited from earlier work

NC(=O)C1=C(O)C2(O)C(=O)C3=C(O)c4c(O)cccc4CC3CC2CC1=O (stereo not drawn) [CMT-3, 6-demethyl-6-deoxy-4-dedimethylaminotetracycline]
Effect on PGE2 production (bovine chondrocytes [1]; LPS 100 μg/ml, 72 hrs): inhibit NO and PGE2 production | Effect on L-NMMA induced PGE2 up-regulation (bovine chondrocytes [1]): inhibits the L-NMMA induced PGE2 up-regulation | Effect on NO production (bovine chondrocytes [2]): inhibit NO and PGE2 production | Nitrite (OA-affected cartilage; Table 2, 5 μg/ml): 75.0 ± 25.0 µM | Effect on NO production (OA-affected cartilage; human OA-affected cartilage, words): significantly inhibit; also recorded: inhibiting NO production | Effect on TNFα release in the medium (TNFα; FIG. 7): inhibits TNFα release in the medium in a dose dependent manner | Effect on spontaneous TNFα release (TNFα; FIG. 8, 16 hours): inhibit the spontaneous TNFα release | Inhibition of TNFα (summary statement) (TNFα; HEK 293 cells transfected with proTNFα cDNA, low levels): inhibiting TNFα | Effect on specific activity of COX-2 (COX-2 [3]; CMT-3 27 μM, CMT-8 27 μM, aspirin 56 μM, indomethacin 28 μM, words): significantly inhibited the specific activity of COX-2 | COX-2 Specific Activity (COX-2 [3]; Table 3, cell-free extracts, 10 μg (aspirin amount not given)): 2.8 ± 4.0 PGE2 ng/mg protein | Effect on COX-2 expression (COX-2 [4]): inhibits COX-2 expression and PGE2 production | Effect on iNOS mRNA expression (iNOS mRNA): inhibiting iNOS mRNA expression
